Source: US10835533B2, “1 -((3S,4R)-4-(3-fluorophenyl)-1-(2-methoxyethyl)pyrrolidin-3-yl)-3-(4-methyl-3-(2-methylpyrimidin-5-yl)-1-phenyl-1H-pyrazol-5-yl)urea as a TrkA kinase inhibitor” (Array BioPharma Inc., priority 2014, dated 2020)

Assay: IV clearance, 1 mg/kg IV, rat
Format: in vivo
Details: for in vivo/in vitro correction factor: microsomal CLh divided by IV CL; for clearance: plasma, 1 mg/kg IV
Description: In Table 1, the predicted human IV clearance values were calculated from compound concentration-versus-time data in plasma collected from pre-clinical species (mouse, rat, dog and monkey) following 1 mg/kg intravenous (IV) doses. Concentrations of compound in plasma were measured by LC-MS (liquid chromatography-mass spectrometry). AUCinf values (Area under the plasma concentration-time curve for a dosing interval from time 0 extrapolated to infinity) for individual Cp/t curves (concentration of the drug in plasma at any time t) were determined using linear-trapezoidal integration and first order extrapolation from terminal points of the Cp/t curves, and clearance (CL) was calculated using Dose/AUCinf.
Each of Compound 1, Compound 2, and Compound 3 was formulated by adding the compound (dry) to 20% Trappsol® (hydroxypropyl Beta cyclodextrin; CDT, Inc.) (aq) pH 5.0 and vortexing until a homogeneous suspension (PO) or solution (IV) was achieved.
For intravenous dosing, animals were anesthetized with 3% isoflurane, balanced O2. 1 mg/kg of Compound 1, Compound 2, and Compound 3 was administered at a dose volume of 1 mL/kg to the lateral tail vein. Blood was drawn from the opposite lateral tail vein while the animal was under anesthesia (3% isoflurane balanced with O2, 0.2 mL/timepoint) into NaEDTA tubes (1.5% v/v) at the following time points: 1, 5, 15, 30 minutes, and 1, 2, 4, 8 and 24 hours, and mixed thoroughly.
A single 12-point calibration curve was prepared by first serially diluting (3-fold) a 40-μg/mL stock solution of Compound 1, Compound 2, and Compound 3 in DMSO to provide standard solutions. Plasma (20 μL) was then added to the extraction plate, and 2.5 μL of each standard solution was added to the naïve plasma. A stock solution of an internal standard (10.0 μL of 2.5 μg/mL in acetonitrile) subsequently was added to each standard and sample solution. Proteinaceous material was precipitated from 20 μL of plasma with the addition of 317.5 μL of acetonitrile for a total volume of 350 μL. Samples were vortex-mixed for 5 minutes and spun in an Allegra X-12R centrifuge (Beckman Coulter, Fullerton, Calif.) for 15 minutes at approximately 1,500×g at 4° C. A 100-μL aliquot of each supernatant was transferred via a 550 μL Personal Pipettor (Apricot Designs, Monrovia, Calif.) to 96-well plates and diluted 1:1 with HPLC grade water. The resulting plates were sealed with plate mats and the amount of Compound 1n the plasma was analyzed by LC-MS/MS.
The LC-MS/MS system was comprised of an HTC-PAL autosampler (Leap Technologies, Inc., Carrboro, N.C.), an HP1100 HPLC (Agilent Technologies Inc., Santa Clara, Calif.), and an API4000 triple quadrupole mass spectrometer (Applied Biosystems, Foster City, Calif.). Chromatographic retention of the analyte and internal standard was achieved using a Phenomenex® Synergi 4μ Hydro-RP 80A column (2.1×30 mm, 4 μm particle size; Phenomenex, Torrance, Calif.) in conjunction with gradient conditions using mobile phases A (10 mM ammonium acetate in aqueous 0.1% formic acid and 1% isopropyl alcohol) and B (10 mM ammonium acetate in 89.9% acetonitrile, 10% methanol, 0.1% formic acid). The total run time, including re-equilibration time, for a single injection was 3.5 minutes and the flow rate was 0.8 mL/minute. Solvent B was increased from 5 to 95% in 1.0 minute, held at 95% for 1.0 minute, and then decreased to 5% in 0.1 minute.
The total run time, including re-equilibration time, for a single injection was 3.5 minutes and the flow rate was 0.8 mL/min. Solvent B was increased from 5 to 95% in 1.0 minutes, held at 95% for 1.0 minute, and then decreased to 5% in 0.1 minute. Mass spectrometric detection of the analytes was accomplished using ESI+ ionization mode. Ion current was optimized during infusion of a stock solution of Compound 1, Compound 2, and Compound 3. Analyte responses were measured by multiple reaction monitoring (MRM) of transitions unique to each compound. […]

SMILES | in vivo/in vitro correction factor | clearance [mL/min/kg]
COCCN1C[C@@H](NC(=O)Nc2c(C)c(-c3cnc(C)nc3)nn2-c2ccccc2)[C@H](c2cccc(F)c2)C1 [Compound 1, 1-((3S,4R)-4-(3-fluorophenyl)-1-(2-methoxyethyl)pyrrolidin-3-yl)-3-(4-methyl-3-(2-methylpyrimidin-5-yl)-1-phenyl-1H-pyrazol-5-yl)urea] | 1.47 | 15
COCCN1C[C@@H](NC(=O)Nc2c(C)c(-c3cnc(C)nc3)nn2-c2ccccc2)[C@H](c2ccc(F)c(F)c2)C1 [Compound 2, 1-((3S,4R)-4-(3,4-difluorophenyl)-1-(2-methoxyethyl)pyrrolidin-3-yl)-3-(4-methyl-3-(2-methylpyrimidin-5-yl)-1-phenyl-1H-pyrazol-5-yl)urea] | 0.76 | 29
COCCN1C[C@@H](NC(=O)Nc2c(C)c(-c3cnn(C)c3)nn2-c2ccccc2)[C@H](c2ccc(F)cc2)C1 [Compound 3, 1-(1′,4-dimethyl-1-phenyl-1H,1′H-[3,4′-bipyrazol]-5-yl)-3-((3S,4R)-4-(4-fluorophenyl)-1-(2-methoxyethyl)pyrrolidin-3-yl)urea] | 0.88 | 26
